Measured values from ChEMBL document CHEMBL4725256, “A critical update on the strategies towards modulators targeting androgen receptors” (Bioorg Med Chem, 2020).

Target: T1, Androgen receptor (Rattus norvegicus, UniProt P15207)
T1 sequence (P15207 whole entry): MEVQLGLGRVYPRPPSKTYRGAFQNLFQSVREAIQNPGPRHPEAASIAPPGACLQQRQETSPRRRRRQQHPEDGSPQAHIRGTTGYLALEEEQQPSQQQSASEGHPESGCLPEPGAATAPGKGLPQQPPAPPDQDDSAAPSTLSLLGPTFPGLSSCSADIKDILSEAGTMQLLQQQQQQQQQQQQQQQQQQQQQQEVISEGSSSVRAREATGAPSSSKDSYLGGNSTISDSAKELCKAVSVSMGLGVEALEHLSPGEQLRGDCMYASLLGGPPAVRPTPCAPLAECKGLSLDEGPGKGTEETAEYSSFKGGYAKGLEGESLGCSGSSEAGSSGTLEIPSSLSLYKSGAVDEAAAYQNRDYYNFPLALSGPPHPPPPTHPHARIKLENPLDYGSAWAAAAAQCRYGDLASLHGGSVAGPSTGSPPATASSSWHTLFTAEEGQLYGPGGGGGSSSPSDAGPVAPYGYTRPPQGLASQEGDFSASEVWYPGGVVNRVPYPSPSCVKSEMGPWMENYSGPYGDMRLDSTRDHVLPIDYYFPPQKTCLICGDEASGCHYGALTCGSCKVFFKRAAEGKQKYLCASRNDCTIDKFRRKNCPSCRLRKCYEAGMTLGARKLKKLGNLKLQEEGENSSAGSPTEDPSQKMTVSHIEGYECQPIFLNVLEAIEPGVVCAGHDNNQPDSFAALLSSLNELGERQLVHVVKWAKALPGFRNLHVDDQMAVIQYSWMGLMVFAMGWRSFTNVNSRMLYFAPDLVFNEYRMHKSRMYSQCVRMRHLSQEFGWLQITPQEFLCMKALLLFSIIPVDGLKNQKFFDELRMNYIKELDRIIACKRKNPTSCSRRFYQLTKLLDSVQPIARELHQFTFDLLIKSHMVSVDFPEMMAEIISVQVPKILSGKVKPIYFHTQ
Assay: Antagonist activity at recombinant GST/His-tagged rat androgen receptor amino-terminal domain by fluorescence polarization assay

## CC(C)(c1ccc(OCC(O)CO)cc1)c1ccc(OCC(O)CCl)cc1 (stereo unspecified)
  IC50: 6 µM
